Like-named read-outs stand apart in the source and are kept apart here.
Legend:
[1] = molecular target: T1, hPPARγ (Homo sapiens, UniProt P37231); experiment: Transfection assay (luciferase reporter), PPARγ; assay type: cell-based; settings: CV-1 cells, full length PPAR plasmid, 24 hours
T1 construct: Full length PPARs plasmid DNA; expressed in transfected cells; host or cells: CV-1 cells
T1 sequence (P37231 1-505): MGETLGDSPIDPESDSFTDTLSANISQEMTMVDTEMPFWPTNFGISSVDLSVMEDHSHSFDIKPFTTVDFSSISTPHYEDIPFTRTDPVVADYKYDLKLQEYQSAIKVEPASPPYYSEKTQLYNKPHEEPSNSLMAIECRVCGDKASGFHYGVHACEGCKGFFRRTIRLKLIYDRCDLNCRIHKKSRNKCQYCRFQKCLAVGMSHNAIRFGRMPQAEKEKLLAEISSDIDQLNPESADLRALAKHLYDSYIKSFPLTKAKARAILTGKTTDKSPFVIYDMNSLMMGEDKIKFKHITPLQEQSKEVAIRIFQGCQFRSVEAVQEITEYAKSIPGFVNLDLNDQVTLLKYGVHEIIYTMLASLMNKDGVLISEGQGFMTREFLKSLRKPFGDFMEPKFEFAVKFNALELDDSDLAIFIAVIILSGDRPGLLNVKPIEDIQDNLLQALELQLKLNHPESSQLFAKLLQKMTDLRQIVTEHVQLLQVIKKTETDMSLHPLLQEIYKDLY
Procedure: (§1) The PPARδ activity of the compound represented by formula (I) of the present invention was confirmed by transfection assay. In addition, the selectivity to PPAR subtypes, PPARα and PPARγ was examined. Cytotoxicity was tested by MTT assay and in vivo activity was investigated by animal experiment.
(§2) CV-1 cells were used in this assay. The cells were inoculated in a 96-well plate containing DMEM supplemented with 10% FBS, DBS (delipidated) and 1% penicillin/streptomycin and cultured in a 37° C., 5% CO2 incubator. The experiment was performed according to the steps of inoculation, transfection, sample treatment and confirmation. Particularly, CV-1 cells were inoculated in a 96 well-plate (5000 cells/well), followed by transfection 24 hours later. Full length PPARs plasmid DNA, reporter DNA confirming PPARs activity owing to its luciferase activity, β-galactosidase DNA providing information on transfection efficiency, and transfection reagent were used for the transfection. Samples were dissolved in dimethylsulfoxide (DMSO), which were treated to the cells via media at different concentrations. After culturing the cells in the incubator for 24 hours, the cells were lysed by using lysis buffer. Luciferase activity and β-galactosidase activity were measured with Luminometer and a microplate reader. The obtained values of luciferase were modified by the values of β-galactosidase. A graph was made with those values and EC50 was calculated.

[2] = molecular target: T2, hPPARα (Homo sapiens, UniProt Q07869); experiment: Transfection assay (luciferase reporter), PPARα; assay type: cell-based; settings: CV-1 cells, full length PPAR plasmid, 24 hours
T2 construct: Full length PPARs plasmid DNA; expressed in transfected cells; host or cells: CV-1 cells
T2 sequence (Q07869 1-468): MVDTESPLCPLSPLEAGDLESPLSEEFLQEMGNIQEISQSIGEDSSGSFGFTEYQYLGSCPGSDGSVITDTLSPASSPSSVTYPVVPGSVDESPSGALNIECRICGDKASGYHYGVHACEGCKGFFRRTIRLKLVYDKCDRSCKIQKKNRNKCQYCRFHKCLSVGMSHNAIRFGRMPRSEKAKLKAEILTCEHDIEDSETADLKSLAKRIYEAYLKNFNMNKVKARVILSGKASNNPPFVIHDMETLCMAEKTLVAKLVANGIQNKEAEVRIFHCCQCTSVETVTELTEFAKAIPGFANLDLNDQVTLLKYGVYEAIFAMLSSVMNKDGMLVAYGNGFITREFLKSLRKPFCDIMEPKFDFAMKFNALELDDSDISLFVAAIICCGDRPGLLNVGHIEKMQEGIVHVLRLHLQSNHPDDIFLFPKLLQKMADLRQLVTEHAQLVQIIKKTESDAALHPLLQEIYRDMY
Procedure: as §1, §2

[3] = molecular target: T3, hPPARδ (Homo sapiens, UniProt Q03181); experiment: Transfection assay (luciferase reporter), PPARδ; assay type: cell-based; settings: CV-1 cells, full length PPAR plasmid, 24 hours
T3 construct: Full length PPARs plasmid DNA; expressed in transfected cells; host or cells: CV-1 cells
T3 sequence (Q03181 1-441): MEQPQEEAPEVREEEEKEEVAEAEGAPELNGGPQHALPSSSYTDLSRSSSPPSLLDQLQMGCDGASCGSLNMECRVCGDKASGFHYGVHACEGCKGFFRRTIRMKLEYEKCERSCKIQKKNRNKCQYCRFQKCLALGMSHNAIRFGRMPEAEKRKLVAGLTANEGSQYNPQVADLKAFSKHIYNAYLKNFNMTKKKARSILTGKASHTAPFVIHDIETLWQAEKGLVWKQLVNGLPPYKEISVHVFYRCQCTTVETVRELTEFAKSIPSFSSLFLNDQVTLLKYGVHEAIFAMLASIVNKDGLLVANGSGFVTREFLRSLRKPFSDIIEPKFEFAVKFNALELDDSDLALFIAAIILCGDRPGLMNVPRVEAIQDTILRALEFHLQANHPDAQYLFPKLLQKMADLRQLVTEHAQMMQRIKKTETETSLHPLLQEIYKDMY
Procedure: as §1, §2

[4] = molecular target: T3, hPPARδ; settings: literature, cited from earlier work

Row | SMILES | EC50 hPPARγ [1] | EC50 hPPARα [2] | EC50 [3] [nM] | EC50 ([4]; human PPARδ) [nM] | selectivity to hPPARδ over PPARα or PPARγ [4] [times]
1 | Cc1cc(SC(Cc2c(F)cccc2C(F)(F)F)c2ccc(-c3ccccc3)cc2)ccc1OCC(=O)O (centres unmarked) [Compound 66] | ia | ia | 33 |  | 
2 | CCCc1c(OCCCOc2ccc(OCC(=O)O)cc2)ccc(C(C)=O)c1O [Compound L-165041] |  |  |  | 530 | 10
3 | Cc1cc([Se]C(Cc2ccccc2)c2ccc(-c3ccc(C(F)(F)F)cc3)cc2)ccc1OCC(=O)O (centres unmarked) [Compound S164] | ia | ia | 4.5 |  | 
4 | Cc1cc([Se]Cc2ccc(-c3ccc(C(F)(F)F)cc3)cc2)ccc1OCC(=O)O [Compound S306] | ia | ia | 53 |  | 
5 | CCC(Oc1ccc(SC(Cc2ccccc2)c2ccc(-c3ccc(C(F)(F)F)cc3)cc2)cc1C)C(=O)O (centres unmarked) [Compound 23] | ia | ia | 12 |  | 
6 | Cc1cc(SC(Cc2ccccc2)c2ccc(-c3ccc(C(F)(F)F)cc3)cc2)ccc1OC(C)(C)C(=O)O (centres unmarked) [Compound 22] | ia | ia | 9.3 |  | 

Reference: US8519145B2, “Aryl compounds as PPAR ligands and their use” (Seoul National University Industry Foundation, priority 2006, dated 2013)
